# Experimental data: patent US11801209B2, “Cooling and flavor boosting compositions” (Firmenich SA, priority 2017, dated 2023)
# System: expert panel of three subjects
# Experiment: Sensory evaluation of toothpaste test formulations by an expert panel: intensity of mint flavor and of cooling effect
# Format: in vivo, human
# Details: test toothpaste formulation, summary of Table 8
# Method: The potentiation may be determined by any method readily selected by one of ordinary skill in the art. In some aspects, the potentiation is determined using a sensory panel. In the aspects where the potentiation is determined using a sensory panel a subject may contact their oral cavity with a composition, and rate the perceived flavor strength and cooing strength of the composition.
# In some aspects, the perceived flavor intensity may be rated from 0 to 5, wherein 0 is no perceived flavor intensity, 1 is a very low perceived flavor intensity, 2 is a low perceived flavor intensity, 3 is a moderate perceived flavor intensity, 4 is a high perceived flavor intensity, and 5 is a very high perceived flavor intensity.
# In some aspects, the perceived cooling intensity may be rated from 0 to 5, wherein 0 is no perceived cooling intensity, 1 is a very low perceived cooling intensity, 2 is a low perceived cooling intensity, 3 is a moderate perceived cooling intensity, 4 is a high perceived cooling intensity, and 5 is a very high perceived […].
# (§1) An expert panel of three subjects was asked to evaluate the intensity of the mint flavor and the intensity of the cooling effect of the test formulations. The subjects were asked to apply approximately 1 g of a test sample on to a toothbrush, and rinse the toothbrush under running water for 5 secs to moisten the paste and soften the bristles. The subjects then brushed their teeth with the applied test sample, taking care to minimize any contact with the subjects' gums. The subjects then expectorated the test sample, and rinsed their mouth with water. The subjects then ranked the intensity of the mint flavor and the intensity of the cooling effect of the test formulations. The subjects were asked to wait for 15 min between each test sample.
# as §1, with “subjects” for “subjects was”
row,Compound,effect on perceived flavor intensity and perceived cooling intensity of the mint flavor
1,O=C(CCc1ccc(O)cc1)c1c(O)cc(O)cc1O [phloretin],able to increase both the perceived flavor intensity and the perceived cooling intensity
2,O=C(O)C1CCCCC1 [cyclohexanecarboxylic acid],able to increase both the perceived flavor intensity and the perceived cooling intensity
3,CCCCC[C@@H]1C(=O)CC[C@@H]1CC(=O)OC [(+)-methyl(1R)-cis-3-oxo-2-pentyl-1-cyclopentaneacetate],able to increase both the perceived flavor intensity and the perceived cooling intensity
4,"Cc1noc(C)c1Cn1cc(N2C(=O)CN(Cc3cccc(O)c3)C2=O)cn1 [3-(1-((3,5-dimethylisoxazol-4-yl)methyl)-1H-pyrazol-4-yl)-1-(3-hydroxybenzyl)imidazolidine-2,4-dione]",able to increase both the perceived flavor intensity and the perceived cooling intensity
5,COc1cc(/C=C/C(=O)O)ccc1O [ferulic acid],able to increase both the perceived flavor intensity and the perceived cooling intensity
6,"CCCC(CCC)NC(=O)c1ccc2c(c1)OCO2 [n-(1-propylbutyl)-1,3-benzodioxole-5-carboxamide]",able to increase both the perceived flavor intensity and the perceived cooling intensity
7,COC(C)=O [methyl acetate],able to increase both the perceived flavor intensity and the perceived cooling intensity
